Source: ChEMBL document CHEMBL4196118, “Discovery of MK-8318, a Potent and Selective CRTh2 Receptor Antagonist for the Treatment of Asthma” (ACS Med Chem Lett, 2018)
Active and inactive are the calls of the source. The rule behind the calls is not given here.

Assays:
[1] = AUC (0 to 6 hrs) in rat at 3 mg/kg, iv; type: ADME, organism-based; parameters: time < 6 hr, dose 3 mg/kg, route intravenous; conditions: in vivo
Cytochrome P450 3A4 = Cytochrome P450 3A4 (Homo sapiens, UniProt P08684); experiment: Inhibition of CYP3A4 (unknown origin); type: ADME
Cytochrome P450 3A4, sequence (P08684 whole entry): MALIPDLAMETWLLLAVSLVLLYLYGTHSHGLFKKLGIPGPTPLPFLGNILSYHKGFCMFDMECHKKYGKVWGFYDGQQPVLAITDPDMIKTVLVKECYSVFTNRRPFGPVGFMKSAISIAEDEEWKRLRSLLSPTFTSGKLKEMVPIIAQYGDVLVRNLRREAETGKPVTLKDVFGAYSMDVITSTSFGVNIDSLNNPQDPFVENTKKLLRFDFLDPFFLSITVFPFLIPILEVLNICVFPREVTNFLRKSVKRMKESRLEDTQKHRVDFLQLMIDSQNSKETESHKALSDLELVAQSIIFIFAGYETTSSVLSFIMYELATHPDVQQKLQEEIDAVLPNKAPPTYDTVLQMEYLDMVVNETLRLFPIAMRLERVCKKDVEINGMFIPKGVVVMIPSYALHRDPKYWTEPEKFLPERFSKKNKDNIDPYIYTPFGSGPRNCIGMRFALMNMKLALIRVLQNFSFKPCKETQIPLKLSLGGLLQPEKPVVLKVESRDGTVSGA

Cytochrome P450 2C9 = Cytochrome P450 2C9 (Homo sapiens, UniProt P11712); experiment: Inhibition of CYP2C9 (unknown origin); type: ADME
Cytochrome P450 2C9, sequence (P11712 whole entry): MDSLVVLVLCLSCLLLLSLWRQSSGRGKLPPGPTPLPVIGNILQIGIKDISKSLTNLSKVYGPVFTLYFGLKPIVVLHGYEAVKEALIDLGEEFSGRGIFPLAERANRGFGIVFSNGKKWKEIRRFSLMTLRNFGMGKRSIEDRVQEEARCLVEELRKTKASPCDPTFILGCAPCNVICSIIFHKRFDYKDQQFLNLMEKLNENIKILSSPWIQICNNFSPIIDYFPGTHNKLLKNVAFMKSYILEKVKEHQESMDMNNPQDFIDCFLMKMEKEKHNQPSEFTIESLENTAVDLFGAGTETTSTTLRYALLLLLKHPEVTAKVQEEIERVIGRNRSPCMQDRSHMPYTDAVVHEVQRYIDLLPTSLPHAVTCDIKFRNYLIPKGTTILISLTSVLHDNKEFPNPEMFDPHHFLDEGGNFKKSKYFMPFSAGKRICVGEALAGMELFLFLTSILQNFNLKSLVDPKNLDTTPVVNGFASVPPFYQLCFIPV

Cytochrome P450 2D6 = Cytochrome P450 2D6 (Homo sapiens, UniProt P10635); experiment: Inhibition of CYP2D6 (unknown origin); type: ADME
Cytochrome P450 2D6, sequence (P10635 whole entry): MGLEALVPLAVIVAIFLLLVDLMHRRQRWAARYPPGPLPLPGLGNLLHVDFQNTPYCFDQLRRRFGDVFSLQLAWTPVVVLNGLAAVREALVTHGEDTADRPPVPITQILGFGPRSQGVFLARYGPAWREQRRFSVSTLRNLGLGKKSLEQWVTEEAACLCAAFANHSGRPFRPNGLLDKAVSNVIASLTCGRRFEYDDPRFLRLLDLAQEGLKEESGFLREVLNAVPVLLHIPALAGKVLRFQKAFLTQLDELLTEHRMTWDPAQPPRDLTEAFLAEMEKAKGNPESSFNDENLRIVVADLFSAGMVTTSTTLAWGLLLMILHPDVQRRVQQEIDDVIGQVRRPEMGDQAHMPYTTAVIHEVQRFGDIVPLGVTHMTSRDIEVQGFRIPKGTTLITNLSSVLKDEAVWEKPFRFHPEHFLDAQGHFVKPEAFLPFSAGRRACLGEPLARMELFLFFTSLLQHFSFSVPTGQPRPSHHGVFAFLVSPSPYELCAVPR

[2] = molecular target: T1, Nuclear receptor subfamily 1 group I member 2 (Homo sapiens, UniProt O75469); experiment: Activation of PXR (unknown origin)
T1 sequence (O75469 whole entry): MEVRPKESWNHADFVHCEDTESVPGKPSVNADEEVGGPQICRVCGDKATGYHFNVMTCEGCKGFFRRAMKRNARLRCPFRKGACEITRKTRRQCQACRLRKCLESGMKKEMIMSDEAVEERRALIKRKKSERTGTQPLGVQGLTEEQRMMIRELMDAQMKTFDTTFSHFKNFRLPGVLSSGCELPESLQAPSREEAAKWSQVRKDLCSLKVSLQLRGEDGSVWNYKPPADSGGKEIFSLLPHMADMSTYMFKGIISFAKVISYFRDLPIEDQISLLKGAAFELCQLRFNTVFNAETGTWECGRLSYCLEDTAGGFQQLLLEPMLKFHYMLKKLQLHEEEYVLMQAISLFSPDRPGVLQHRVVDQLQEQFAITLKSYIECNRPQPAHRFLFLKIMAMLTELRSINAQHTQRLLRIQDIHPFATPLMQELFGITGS

[3] = Clearance in rat plasma at 3 mg/kg, iv; type: ADME, organism-based
[4] = Clearance in dog plasma at 1 mg/kg, iv; type: ADME, organism-based, Canis lupus familiaris
[5] = Clearance in monkey plasma at 1 mg/kg, iv; type: ADME, organism-based, Macaca mulatta; conditions: rhesus monkey
[6] = Volume of distribution in rat at 3 mg/kg, iv; type: ADME, organism-based; conditions: in vivo
[7] = Volume of distribution in dog at 1 mg/kg, iv; type: ADME, organism-based, Canis lupus familiaris; conditions: in vivo
[8] = Volume of distribution in monkey at 1 mg/kg, iv; type: ADME, organism-based, Macaca mulatta; conditions: rhesus monkey, in vivo
[9] = Half life in rat at 3 mg/kg, iv; type: ADME, organism-based; conditions: in vivo
[10] = Half life in dog at 1 mg/kg, iv; type: ADME, organism-based, Canis lupus familiaris; conditions: in vivo
[11] = Half life in monkey at 1 mg/kg, iv; type: ADME, organism-based, Macaca mulatta; conditions: rhesus monkey, in vivo
[12] = AUC in rat at 3 mg/kg, iv; type: ADME, organism-based; conditions: in vivo
[13] = AUC in dog at 1 mg/kg, iv; type: ADME, organism-based, Canis lupus familiaris; conditions: in vivo
[14] = AUC in monkey at 1 mg/kg, iv; type: ADME, organism-based, Macaca mulatta; conditions: rhesus monkey, in vivo
[15] = Cmax in rat at 10 mg/kg, po; type: ADME, organism-based; parameters: dose 10 mg/kg, route oral; conditions: in vivo
[16] = Cmax in dog at 2 mg/kg, po; type: ADME, organism-based, Canis lupus familiaris; parameters: dose 2 mg/kg, route oral; conditions: in vivo
[17] = Cmax in rhesus monkey at 10 mg/kg, po; type: ADME, organism-based, Macaca mulatta; parameters: dose 10 mg/kg, route oral; conditions: in vivo
[18] = Tmax in rat at 10 mg/kg, po; type: ADME, organism-based; conditions: in vivo
[19] = Tmax in dog at 2 mg/kg, po; type: ADME, organism-based, Canis lupus familiaris; conditions: in vivo
[20] = Tmax in rhesus monkey at 10 mg/kg, po; type: ADME, organism-based, Macaca mulatta; conditions: in vivo
[21] = AUC in rat at 10 mg/kg, po; type: ADME, organism-based; conditions: in vivo
[22] = AUC in dog at 2 mg/kg, po; type: ADME, organism-based, Canis lupus familiaris; conditions: in vivo
[23] = AUC in rhesus monkey at 10 mg/kg, po; type: ADME, organism-based, Macaca mulatta; conditions: in vivo
[24] = Oral bioavailability in rat at 10 mg/kg; type: ADME, organism-based; conditions: in vivo
[25] = Oral bioavailability in dog at 2 mg/kg; type: ADME, organism-based, Canis lupus familiaris; conditions: in vivo
[26] = Oral bioavailability in rhesus monkey at 10 mg/kg; type: ADME, organism-based, Macaca mulatta; conditions: in vivo
Ovis aries [27] = experiment: Anti-asthmatic activity in sheep lung allergen model assessed as inhibition of antigen-induced late airway response at 1 mg/kg administered as 4 hrs iv infusion starting at 1 hr prior to antigen challenge measured 4 to 8 hrs post antigen challenge; type: functional, organism-based
Ovis aries [28] = experiment: Anti-asthmatic activity in sheep lung allergen model assessed as inhibition of antigen-induced airway hyper-responsiveness at 1 mg/kg administered as 4 hrs iv infusion starting at 1 hr prior to antigen challenge measured 24 hrs post antigen challenge; type: functional, organism-based
Rattus norvegicus [29] = experiment: (§1) Antiinflammatory activity in Brown Norway rat assessed as inhibition of OVA-induced eosinophils levels in BAL cells at 3 mg/kg, po qd for 3 days followed by aerosolized OVA challenge for 30 mins administered 2 hrs post last compound dose on day 3 measured 24 hrs post aerosolized OVA challenge relative to control; type: functional
Rattus norvegicus [30] = experiment: as §1, with “neutrophils” for “eosinophils”; type: functional
Rattus norvegicus [31] = experiment: as §1, with “total cell” for “eosinophils”; type: functional
Rattus norvegicus [32] = experiment: as §1, with “OVA-induced neutrophils” for “OVA-induced eosinophils”, “at 10” for “at 3”; type: functional
Rattus norvegicus [33] = experiment: as §1, with “at 10” for “at 3”; type: functional
Rattus norvegicus [34] = experiment: as §1, with “OVA-induced total cell” for “OVA-induced eosinophils”, “at 10” for “at 3”; type: functional
Rattus norvegicus [35] = experiment: as §1, with “at 30” for “at 3”; type: functional
Rattus norvegicus [36] = experiment: as §1, with “OVA-induced neutrophils” for “OVA-induced eosinophils”, “at 30” for “at 3”; type: functional
Rattus norvegicus [37] = experiment: as §1, with “OVA-induced total cell” for “OVA-induced eosinophils”, “at 30” for “at 3”; type: functional
[38] = molecular target: T2, Prostaglandin D2 receptor 2 (Homo sapiens, UniProt Q9Y5Y4)
T2 sequence (Q9Y5Y4 whole entry): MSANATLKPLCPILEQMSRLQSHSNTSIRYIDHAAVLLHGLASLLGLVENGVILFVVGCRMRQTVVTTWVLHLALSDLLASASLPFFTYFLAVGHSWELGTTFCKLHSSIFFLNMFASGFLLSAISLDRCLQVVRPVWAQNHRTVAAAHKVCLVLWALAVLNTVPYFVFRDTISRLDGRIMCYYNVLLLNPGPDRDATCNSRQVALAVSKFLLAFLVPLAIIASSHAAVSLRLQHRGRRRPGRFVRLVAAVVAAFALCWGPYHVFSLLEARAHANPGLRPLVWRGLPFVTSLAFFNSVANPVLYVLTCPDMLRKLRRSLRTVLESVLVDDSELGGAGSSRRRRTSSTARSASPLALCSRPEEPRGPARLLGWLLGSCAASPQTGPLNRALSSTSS

[39] = molecular target: T2, Prostaglandin D2 receptor 2; remark: listed apart in the source
Description: Antagonist activity at human CRTh2 expressed in CHOK1 cells assessed as inhibition of PGD2-induced beta-arrestin recruitment incubated for 30 mins followed by PGD2 stimulation measured after 60 mins by PathHunter based chemiluminescence assay

[40] = molecular target: T2, Prostaglandin D2 receptor 2; experiment: biochemical
Description: Displacement of [3H]PGD2 from human CRTh2 expressed in HEK cell membranes after 60 mins by scintillation counting method

AUC(0-t) at 6 h [1]: 3.35 µM·h | inhibition (INH) (Cytochrome P450 3A4): Not Active | inhibition (INH) (Cytochrome P450 2C9): Not Active | inhibition (INH) (Cytochrome P450 2D6): Not Active | Activity [2]: Not Active | clearance [3]: 29.1 mL/min/kg | clearance [4]: 9.4 mL/min/kg | clearance [5]: 16.4 mL/min/kg | Vd [6]: 5.8 L/kg | Vd [7]: 2.4 L/kg | Vd [8]: 5.8 L/kg | half-life [9]: 7.5 h | half-life [10]: 10.4 h | half-life [11]: 12.9 h | AUC [12]: 3.4 µM·h | AUC [13]: 3.46 µM·h | AUC [14]: 1.92 µM·h | Cmax [15]: 2070 nM | Cmax [16]: 2470 nM | Cmax [17]: 5690 nM | Tmax [18]: 0.58 h | Tmax [19]: 0.42 h | Tmax [20]: 0.42 h | AUC [21]: 6.77 µM·h | AUC [22]: 8.51 µM·h | AUC [23]: 6.76 µM·h | bioavailability [24]: 61% | bioavailability [25]: 121% | bioavailability [26]: 28% | IC50 [38]: 8 nM | IC50 [39]: 3.5 nM | Ki [40]: 5 nM
SMILES: O=C(O)CCC(=O)N(C1CC1)[C@H]1c2cc(F)ccc2N(C(=O)c2ccc(OC(F)(F)F)cc2)[C@H]2CCC[C@H]21
inhibition (Ovis aries [27]): Active | inhibition (Ovis aries [28]): Active | inhibition in vivo at 3 mg/kg (Rattus norvegicus [29]): 36% | inhibition in vivo at 3 mg/kg (Rattus norvegicus [30]): 56% | inhibition in vivo at 3 mg/kg (Rattus norvegicus [31]): 52% | inhibition in vivo at 10 mg/kg (Rattus norvegicus [32]): 49% | inhibition in vivo at 10 mg/kg (Rattus norvegicus [33]): 65% | inhibition in vivo at 10 mg/kg (Rattus norvegicus [34]): 68% | inhibition in vivo at 30 mg/kg (Rattus norvegicus [35]): 58% | inhibition in vivo at 30 mg/kg (Rattus norvegicus [36]): 77% | inhibition in vivo at 30 mg/kg (Rattus norvegicus [37]): 78%
